Patent EP1032561B1, “SUBSTITUTED OXIMES AS NEUROKININ ANTAGONISTS” (SCHERING CORPORATION, priority 1997, dated 1999)

How the values were obtained:
NK1 receptor = NK1 receptor (Homo sapiens, UniProt P25103); test: neurokinin receptor binding assay, NK1
Text: (§1) The in vitro and in vivo activity of the compounds of formula I can be determined by various procedures known in the art, such as a test for their ability to inhibit the activity of the NK1 agonist Substance P, an isolated hamster trachea NK2 assay, a test of the effect of NK1 antagonists on Substance P-induced airway microvascular leakage, measurement of NK2 activity in vivo in guinea pigs, measurement of bronchoconstriction due to NKA, and neurokinin receptor binding assay(s). Typical procedures are described in WO96/34857, published November 7, 1996. NK3 activity is determined by following a procedure similar to that described in the literature, e.g., Molecular Pharmacol., 48 (1995), p. 711-716.
(§2) % Inhibition is the difference between the percent of maximum specific binding (MSB) and 100%. The percent of MSB is defined by the following equation, wherein "dpm" is disintegrations per minute: % MSB =((dpm of unknown) - (dpm of nonspecific binding))/((dpm of total binding) - (dpm of nonspecific binding))X 100 [formula]

NK2 receptor = biological target: T1, NK2 receptor (Homo sapiens, UniProt P21452); test: neurokinin receptor binding assay, NK2
T1 sequence (P21452 1-398): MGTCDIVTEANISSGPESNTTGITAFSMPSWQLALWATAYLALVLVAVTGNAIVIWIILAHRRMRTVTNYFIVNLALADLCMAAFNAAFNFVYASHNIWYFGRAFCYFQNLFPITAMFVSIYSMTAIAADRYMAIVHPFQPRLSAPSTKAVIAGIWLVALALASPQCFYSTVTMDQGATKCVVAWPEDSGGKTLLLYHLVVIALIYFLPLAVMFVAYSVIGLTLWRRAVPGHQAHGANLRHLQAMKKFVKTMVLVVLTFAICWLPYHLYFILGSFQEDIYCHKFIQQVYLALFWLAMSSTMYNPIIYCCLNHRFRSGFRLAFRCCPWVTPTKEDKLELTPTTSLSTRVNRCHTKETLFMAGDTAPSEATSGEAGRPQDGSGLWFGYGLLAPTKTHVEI
Text: as §1, §2

Sequence of NK1 receptor (P25103 whole entry, species assumed): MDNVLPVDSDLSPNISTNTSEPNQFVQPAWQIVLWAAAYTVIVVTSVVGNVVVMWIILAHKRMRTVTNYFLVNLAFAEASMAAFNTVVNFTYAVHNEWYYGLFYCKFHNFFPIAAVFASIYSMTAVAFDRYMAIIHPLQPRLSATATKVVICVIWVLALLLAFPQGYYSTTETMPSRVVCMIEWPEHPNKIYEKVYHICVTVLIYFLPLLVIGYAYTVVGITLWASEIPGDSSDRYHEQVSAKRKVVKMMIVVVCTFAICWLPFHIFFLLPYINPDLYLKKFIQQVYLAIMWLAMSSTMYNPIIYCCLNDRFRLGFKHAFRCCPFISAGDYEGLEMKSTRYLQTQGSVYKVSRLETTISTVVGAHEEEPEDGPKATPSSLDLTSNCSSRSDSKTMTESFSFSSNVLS

SMILES: CON=C(CN(C)C(=O)c1cc(C(F)(F)F)cc(C(F)(F)F)c1)C(CCN1CCC(O)(c2ccccc2)CC1)c1ccc(Cl)c(Cl)c1 (centres unmarked) [Example 11]
- Ki (NK1 receptor): 3.6 nM
- Ki (NK2 receptor): 9.2 nM
